We go through five compounds from patent US7371766B2, “Curcumin analogs with anti-tumor and anti-angiogenic properties” (Emory University, priority 1999, dated 2008).

One data set relates to RPMI-7951 human melanoma. Description: Neutral Red Assay, cell viability, RPMI-7951. The following applies: RPMI-7951; for Cell Viability: DMSO = 100; for Neutral Red Uptake, %: 72 hours.
A further data set has as its system U251. Description: cells. The following applies: Homo sapiens, U-251, 48 h.
For a further data set, the system named is SK-MEL-2. The data set is described as follows: cells. The settings on record: Homo sapiens, SK-MEL-2, 48 h.
The test system of another data set is BT-549. Description: cells. The settings on record: Homo sapiens, BT-549, 48 h.
For the next data set, the system named is EKVX. The data set is described as follows: cells. The following applies: Homo sapiens, 48 h.
The test system of the next data set is A498. Description: cells. The following applies: Homo sapiens, A498, 48 h.
Another data set relates to DU-145. The data set is described as follows: cells. The settings on record: Homo sapiens, DU-145, 48 h.
The next data set deals with K-562. Description: cells. The settings on record: Homo sapiens, K562, 48 h.
The test system of data set [1] is Sixty human tumor cell lines. Description: cells. The following applies: 48 h.
A further data set has as its system TK-10. Description: cells. The settings on record: Homo sapiens, TK-10, 48 h.
The test system of the next data set is MALME-3M. Description: cells. The following applies: Homo sapiens, 48 h.
The next data set has as its system NCI-H23. The data set is described as follows: cells. The following applies: Homo sapiens, NCI-H23, 48 h.
In another data set the test system is OVCAR-8. Description: cells. The following applies: Homo sapiens, OVCAR-8, 48 h.
In the next data set the test system is HT29. Description: cells. The settings on record: Homo sapiens, HT-29, 48 h.
The test system of the next data set is SF-539. Description: cells. The settings on record: Homo sapiens, SF-539, 48 h.
Another data set deals with OVCAR-4. Description: cells. The settings on record: Homo sapiens, OVCAR-4, 48 h.
For a further data set, the system named is UACC-62. The data set is described as follows: cells. The settings on record: Homo sapiens, UACC-62, 48 h.
Another data set has as its system IGROV1. The data set is described as follows: cells. The settings on record: Homo sapiens, IGROV-1, 48 h.
The next data set deals with M14. The data set is described as follows: cells. The settings on record: Homo sapiens, M14, 48 h.
A further data set concerns SF-295. The data set is described as follows: cells. The following applies: Homo sapiens, SF-295, 48 h.
The test system of another data set is SW-620. Description: cells. The settings on record: Homo sapiens, SW-620, 48 h.
For a further data set, the system named is HL-60 (TB). The data set is described as follows: cells. The following applies: Homo sapiens, HL-60, 48 h.
The test system of another data set is MDA-MB-435. The data set is described as follows: cells. The following applies: Homo sapiens, MDA-MB-435, 48 h.
For another data set, the system named is OVCAR-5. The data set is described as follows: cells. The following applies: Homo sapiens, OVCAR-5, 48 h.
Another data set deals with SR. The data set is described as follows: cells. The settings on record: Homo sapiens, 48 h.
The subject of the next data set is RPMI-8226. Description: cells. The settings on record: Homo sapiens, RPMI-8226, 48 h.
For the next data set, the system named is HS 578T. Description: cells. The settings on record: Homo sapiens, 48 h.
For a further data set, the system named is MDA-N. The data set is described as follows: cells. The following applies: Homo sapiens, 48 h.
For the next data set, the system named is SK-MEL-5. The data set is described as follows: cells. The following applies: Homo sapiens, SK-MEL-5, 48 h.
In a further data set the test system is HCT-116. The data set is described as follows: cells. The settings on record: Homo sapiens, HCT-116, 48 h.
Where [2] appears, read: read-out: Median Growth Inhibitory Concentration (GI50).
Where [3] appears, read: read-out: Median Lethal Concentration (LC50).

Protocol for RPMI-7951 human melanoma: RPMI-795 1, MDA-MB-231 and MDA-MB-435 cell lines were cultured in MEM-alpha medium (GIBCO-BRL, Long Island, N.Y.) containing 10% fetal bovine serum (RPMI-7951, MDA-MB-231) or 5% FBS (MDA-MB-435) at 37° C. and under 5% CO2/95% air. […] The cells were cultured in 48 well plates in all of the experiments described.
Neutral Red Assay was utilized to determine the effect of the compounds of the present invention on cell viability. Neutral Red was purchased from GIBCO-BRL (Long Island, N.Y.). Cells were plated at a concentration of 20,000 cells/well and cultured overnight. Compounds or vehicle (DMSO 0.1%) were then added and the plates were incubated for 72 hours. Supernatant from each well was either aspirated or collected and media containing Neutral Red (GIBCO-BRL, Long Island, N.Y.) at a concentration of 15 μl/ml was then added to each well. The plates were then incubated at 37° C. for 30 minutes. Next, the cells were washed with twice with PBS and alcoholic-HCl (0.5N—HCl/35% ethanol) was added to each well. The plates were then placed on a plate shaker until all residues were solubilized (pink color). The solubilized mixtures were then transferred to a 96 well plate and the absorbances were read on a micro-test plate reader at a wavelength of 570 nm.
Cell viability was determined by Neutral Red Assay.

Regarding “3,5-Bis(2-hydroxybenzylidene)-sulfone [EF11]”, the “Cell Viability” value in the data set with RPMI-7951 human melanoma (20 μM) came out at 93%.
`N.N.[Cl][Pt][Cl]` [Cisplatin, reference compound]: the “Neutral Red Uptake, %” value with RPMI-7951 human melanoma (5 μM) and in the data set on RPMI-7951 human melanoma (20 μM) was 100 % of control throughout.
On to `C(=C\c1ccccc1)/S/C=C/c1ccccc1` [EF15], for which, in the data set with RPMI-7951 human melanoma (5 μM), the “Neutral Red Uptake, %” value is 100 % of control and the “Cell Viability” value is reported as 112%. In addition, in the data set on RPMI-7951 human melanoma (20 μM), the “Neutral Red Uptake, %” value is 100 % of control and the “Cell Viability” value is given as 111%.
Consider `OC(CCc1ccc(F)cc1F)CCc1ccc(F)cc1F` [EF19, 1,5-Bis(2,4-difluorophenyl)-pentan-3-ol], for which the GI50 in the data set with U251 (setting [2]) was found to be 17.4 µM; in the data set on SK-MEL-2 (setting [2]), 18.4 µM; in the data set with BT-549 (setting [2]), 17.9 µM; with EKVX (setting [2]) it was 17.5 µM; in the data set on A498 (setting [2]), 16.3 µM; in the data set on DU-145 (setting [2]), 18.1 µM. The GI50 in the data set with K-562 (setting [2]) was 19 µM; in data set [1] (read-out: Median Growth Inhibitory Concentration (GI50), Mean) it was 17.8 µM; in the data set on TK-10 (setting [2]), 17.4 µM; in the data set on MALME-3M (setting [2]), 18 µM; in the data set on NCI-H23 (setting [2]) it was 22.8 µM; with OVCAR-8 (setting [2]) it was 18 µM. Besides, the GI50 in the data set with HT29 (setting [2]) amounted to 17.9 µM; with SF-539 (setting [2]), 16.9 µM; with OVCAR-4 (setting [2]) it was 17.4 µM; with UACC-62 (setting [2]) it was 15.1 µM; in the data set with IGROV1 (setting [2]) it was 17.2 µM; in the data set on M14 (setting [2]) it was 18.3 µM. Also, the GI50 with SF-295 (setting [2]) worked out at 18.7 µM; with SW-620 (setting [2]), 17.7 µM; in the data set with HL-60 (TB) (setting [2]), 18.1 µM; in the data set on MDA-MB-435 (setting [2]), 17.1 µM; in the data set on OVCAR-5 (setting [2]), 18.5 µM; in the data set with SR (setting [2]), 22.7 µM. In addition, the GI50 in the data set on RPMI-8226 (setting [2]) was 21.7 µM; in the data set with HS 578T (setting [2]) it was 21.9 µM; with MDA-N (setting [2]), 16.9 µM; in the data set with SK-MEL-5 (setting [2]), 17.1 µM; in the data set on HCT-116 (setting [2]), 17.8 µM. The CC50 was 55.8 µM in the data set on U251 (setting [3]); 57 µM with SK-MEL-2 (setting [3]); 64.7 µM in the data set with BT-549 (setting [3]); 57.7 µM in the data set with EKVX (setting [3]); 54.7 µM in the data set with A498 (setting [3]); 56.6 µM in the data set on DU-145 (setting [3]). Besides, the CC50 in the data set on K-562 (setting [3]) amounted to 90.1 µM; in [1] (read-out: Median Lethal Concentration (LC50), Mean) it was 64.6 µM; in the data set on TK-10 (setting [3]), 56.3 µM; in the data set on MALME-3M (setting [3]), 59.6 µM; in the data set on NCI-H23 (setting [3]), 96.8 µM; in the data set on OVCAR-8 (setting [3]), 67.3 µM. Also, the CC50 came to 62.6 µM in the data set with HT29 (setting [3]); 55.3 µM with SF-539 (setting [3]); 65.1 µM in the data set on OVCAR-4 (setting [3]); 53.2 µM in the data set with UACC-62 (setting [3]); 55.6 µM in the data set with IGROV1 (setting [3]); 68.7 µM in the data set with M14 (setting [3]). The CC50 in the data set with SF-295 (setting [3]) was 69.7 µM; in the data set on SW-620 (setting [3]), 63.7 µM; in the data set on HL-60 (TB) (setting [3]) it was 66.8 µM; with MDA-MB-435 (setting [3]), 55.6 µM; in the data set with OVCAR-5 (setting [3]), 61.1 µM; in the data set with SR (setting [3]), 82.6 µM. Also, the CC50 was more than 100 µM in the data set on RPMI-8226 (setting [3]); more than 100 µM in the data set with HS 578T (setting [3]); 55.2 µM in the data set on MDA-N (setting [3]); 55.5 µM with SK-MEL-5 (setting [3]); 56.3 µM in the data set with HCT-116 (setting [3]).
Turning to `O=C1C(=Cc2ccccc2O)COCC1=Cc1ccccc1O` [EF25, 3,5-Bis(2-hyrdoxybenzylidene)tetrahydro4-H-pyran4-one], the “Cell Viability” value with RPMI-7951 human melanoma (5 μM) came to 12%.
